Where “and” joins values, the source holds several entries; their conditions need not be identical. Equal entries are not always repeated. Where two headings read alike, the source gives them in different places.
Experiments:
RRE subdomain IIB = assay: Fluorescence binding to fluorescein-labeled (U23) RRE subdomain IIB RNA hairpin; set-up: species or system HIV-1; settings: RRE IIB hairpin labeled with fluorescein at U23; 100 nM RNA, pH 6.6; 95% CI and R2 in parentheses
Experimental: These experiments measured compound association to an RRE subdomain IIB RNA oligonucleotide labeled with fluorescein at extrahelical loop nucleotide U23 (Figure 1) and were carried out in a Spectramax iD5 microplate reader (Molecular Devices) using 100 nM RNA dissolved in 10 mM sodium phosphate, pH 6.6, and 0.1 mM EDTA, as described before. The equilibrium dissociation constants, Kd, were determined by fitting the fluorescence intensity curves to a two-state binding model with GraphPad Prism software. […] All fluorescence experiments were carried out at least three times for each compound.

[1] = system: full-length RRE–Rev complex; assay: EMSA of full-length RRE–Rev complex formation inhibition; assay type: biochemical, HIV-1; settings: low-order RRE–Rev complex EMSA bands; 70 nM RRE, 0.75 µM Rev; 95% CI and R2 in parentheses
Experimental: These assays were used to monitor full-length RRE–Rev inhibition and involved the viral protein Rev and a 234 nt RRE sequence (Figure 1), obtained as reported previously. RRE was prepared in native conditions using a procedure based on electrophoresis. The reactions used 70 nM RRE and 0.75 μM Rev dissolved in an aqueous solution containing 10 mM HEPES, pH 7.5, 300 mM KCl, 1 mM MgCl2 and 0.5 mM EDTA, and the samples were loaded onto 8% polyacrylamide gels with TB running buffer. Gels were run at 4 °C for 3 h at 150 V, and the bands were stained with SYBR Gold and quantified with ImageJ software. In all cases, we monitored the disappearance of the bands corresponding to low-order RRE–Rev complexes (Figure 4A) using a sigmoidal inhibitory model and GraphPad Prism. At least three independent experiments were conducted for each compound.

in vitro = assay type: cell-based; settings: human
Experimental: (§1) The methodology used to perform these experiments in MT-2 cell culture was reported previously. Infectious HIV-1NL4-3-Ren supernatants were obtained from transfection in 293T cells with plasmid pNL4-3-Ren, where a Renilla luciferase reporter gene replaces the nef gene of the wild-type pNL4-3 HIV-1 clone, which includes LTR promoters. MT-2 cells were infected with these supernatants (100,000 RLUs/well) in the presence of the compounds, and anti-HIV activity was quantified 48 h post-infection by determining Renilla luciferase activity in cell lysates compared to a non-treated control (100%), following the manufacturer’s instructions (Renilla Assay System, Promega). Briefly, 100 µL of Renilla Assay System buffer was added to obtain cell lysates, and 35 µL of these lysates was then transferred to a white 96-well microplate. RLUs were recorded after injecting 35 µL of Renilla substrate (10 s reading) using a luminometer (Berthold Detection Systems). Cellular viability was evaluated in mock-infected cells similarly treated with the same concentrations of compounds using the CellTiter-Glo assay (Promega). To assess the antiretroviral activity of benfluron in human primary cells, PBMCs were isolated from healthy donors via Ficoll density gradient centrifugation and subsequently cultured in a PHA (1 µg/mL) and IL-2 (100 U/mL)-enriched medium for 48 h at 37 °C. Activated PBMCs were infected with HIV-1NL4-3 [20] at a multiplicity of infection of 0.001 and cultured in the presence of serial dilutions (5 nM–100 µM) of benfluron. Three days post-infection, the supernatant was collected, and the HIV-inhibitory effect of the drug was measured using the Alliance HIV-1 p24 Antigen Elisa Kit (Perkin Elmer). The toxicity of the compound in PBMCs was evaluated as explained above for MT-2 cells. In both experiments, the potential background toxicity and antiviral effect of the DMSO vehicle used to solubilize the molecule were determined in parallel. In all cases, EC50 and CC50 values were calculated with GraphPad Prism using log(inhibitor) vs. response non-linear curve fitting. All cellular assays were performed in triplicate.

PBMCs = assay: in vitro; assay type: cell-based; settings: human
Experimental: as §1

HIV-1NL4-3 = assay: Antiretroviral activity in activated PBMCs infected with HIV-1NL4-3 (p24 ELISA); assay type: cell-based
Experimental: as §1, with “Briefly, 100 µL of Renilla Assay System buffer was added to obtain cell lysates, and 35 µL of these lysates was then transferred to a white 96-well microplate.” left out, “To assess the antiretroviral activity of benfluron in human primary cells, PBMCs were isolated from healthy donors via Ficoll density gradient centrifugation and subsequently cultured in a PHA (1 µg/mL) and IL-2 (100 U/mL)-enriched medium for 48 h at 37 °C. Activated PBMCs were infected with HIV-1NL4-3 [20] at a multiplicity of infection of 0.001 and cultured in the presence of serial dilutions (5 nM–100 µM) of benfluron.” left out, “In all cases, EC50 and CC50 values were calculated with GraphPad Prism using log(inhibitor) vs. response non-linear curve fitting. All cellular assays were performed in triplicate.” left out

HIV-1NL4-3-Ren [2] = system: HIV-1NL4-3-Ren; set-up: method as in PMID 30071201; settings: MT-2 cells, HIV-1 infection; cited from earlier work
MT-2 cells = system: MT-2 cells; set-up: method as in PMID 30071201; settings: cited from earlier work
HIV-1NL4-3-Ren [3] = assay: Anti-HIV activity in MT-2 cells infected with HIV-1NL4-3-Ren (Renilla luciferase); assay type: cell-based; settings: for EC50: Human immunodeficiency virus 1, MT2, 48 h
Experimental: as §1

Row | Structure (SMILES) | Kd (RRE subdomain IIB) [µM] | IC50 [1] | CC50 (in vitro; cytotoxic CC50) [µM] | CC50 (PBMCs) [µM] | selectivity index (SI; CC50/EC50) (HIV-1NL4-3) | EC50 (HIV-1NL4-3; Human immunodeficiency virus 1, PBMC, 72 h, HIV-1NL4-3, three days post-infection, p24, read-out: antiviral EC50) [µM] | EC50 (HIV-1NL4-3-Ren [2]) [µM] | CC50 (MT-2 cells) [µM] | EC50 (HIV-1NL4-3-Ren [3]) [µM] | selectivity index (SI; CC50/EC50) (HIV-1NL4-3-Ren [3]; MT-2 cells) | CC50 at 48 h (in vitro; CC50) [µM] | CC50 at 48 h (in vitro; MT-2 cells, mock-infected, 95% CI and R2 in parentheses, read-out: CC50) [µM]
1 | CN(C)CCOc1cc2c(c3ccccc13)-c1ccccc1C2=O [benfluron] | 4.83 | 5 µM | 7.1 | 7.09 | 1.3 | 5.5 | 0.83 | 28.1 |  |  |  | 
2 | CN(C)CCOc1cc(C(=O)c2ccccc2)cc2ccccc12 [Compound 5] | 95.1 | ~29 µM and 29 µM |  |  |  |  |  |  | 19.4 | 2.6 | 49.7 | 
3 | CN(C)CCOc1cccc(C(=O)c2ccccc2)c1 [Compound 2] | > 100 | > 50 µM |  |  |  |  |  |  | ~100 |  | ~100 | 
4 | CN(C)CCOc1ccc2c(c1)Cc1ccccc1-2 [Compound 3] | 106 | > 50 µM |  |  |  |  |  |  | ~100 |  | ~100 | 
5 | CN(C)CCOc1ccc2c(c1)C(=O)c1ccccc1-2 [Compound 1] | 45.6 | > 50 µM |  |  |  |  |  |  | > 100 |  | > 100 | 
6 | CN1CCN(CCOc2cc(C(=O)c3ccccc3)cc3ccccc23)CC1 [Compound 6] | 34 | ~45 µM and 45 µM |  |  |  |  |  |  | 24.2 |  | 20 to 100 | 20 to 49.7
7 | CN(C)CCOc1ccc(-c2ccccc2)c2ccccc12 [Compound 4] | 77.5 | > 50 µM |  |  |  |  |  |  | 17 |  | 28.7 | 

— paper PMC10609163, “Exploring the HIV-1 Rev Recognition Element (RRE)–Rev Inhibitory Capacity and Antiretroviral Action of Benfluron Analogs” (Molecules, 2023)
